{"source": "ChEMBL document CHEMBL1149398", "about": "“Pyrrolizidine esters and amides as 5-HT4 receptor agonists and antagonists” (J Med Chem, 2006)", "key": {"Salmonella typhi": {"tested_on": "Salmonella typhi", "assay": "Mutagenic activity in a GLP study using Salmonella Typhimurium TA1538 in presence of S9 fraction at 7.2-3600 ug/plate", "format": "toxicity, organism-based", "details": "salmonella enterica subsp. enterica […]; call rule not given here"}, "Canis familiaris": {"tested_on": "Canis familiaris", "assay": "Contractile response of the antrum in iv dosed fasted dog", "format": "functional", "details": "Canis lupus familiaris"}, "[1]": {"molecular_target": "Serotonin 3 receptor (5HT3) (Mus musculus) (UniProt Q9JHJ5+P23979)", "sequence (P23979 whole entry, looked up)": "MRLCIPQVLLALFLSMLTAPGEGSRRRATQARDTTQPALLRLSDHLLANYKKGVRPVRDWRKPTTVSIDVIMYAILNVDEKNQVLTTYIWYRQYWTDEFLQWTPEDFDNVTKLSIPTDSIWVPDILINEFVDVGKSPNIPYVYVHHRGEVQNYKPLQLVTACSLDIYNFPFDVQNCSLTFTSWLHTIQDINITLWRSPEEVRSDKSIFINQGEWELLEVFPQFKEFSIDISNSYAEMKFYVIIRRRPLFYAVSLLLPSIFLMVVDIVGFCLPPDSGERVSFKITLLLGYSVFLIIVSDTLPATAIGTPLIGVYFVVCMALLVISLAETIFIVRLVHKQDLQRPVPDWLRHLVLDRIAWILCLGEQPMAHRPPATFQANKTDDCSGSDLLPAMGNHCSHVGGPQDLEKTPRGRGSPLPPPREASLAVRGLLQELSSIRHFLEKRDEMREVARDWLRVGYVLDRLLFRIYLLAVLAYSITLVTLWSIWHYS", "sequence (Q9JHJ5 whole entry, looked up)": "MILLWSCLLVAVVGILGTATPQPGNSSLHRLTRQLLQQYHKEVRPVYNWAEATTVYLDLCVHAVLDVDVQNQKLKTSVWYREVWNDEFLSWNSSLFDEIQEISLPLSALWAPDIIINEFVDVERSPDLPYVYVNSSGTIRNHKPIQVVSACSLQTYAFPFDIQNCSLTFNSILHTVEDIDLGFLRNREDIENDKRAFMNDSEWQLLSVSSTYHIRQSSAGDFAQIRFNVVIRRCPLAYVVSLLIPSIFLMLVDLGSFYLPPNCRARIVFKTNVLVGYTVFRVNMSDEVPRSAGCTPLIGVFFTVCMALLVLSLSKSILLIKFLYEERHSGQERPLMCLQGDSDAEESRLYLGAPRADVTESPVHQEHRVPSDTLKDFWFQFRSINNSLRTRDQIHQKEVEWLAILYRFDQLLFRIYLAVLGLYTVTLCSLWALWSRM", "assay": "Antagonism at 5HT3 receptor in mice by von Bezold-Jarisch reflex inhibition at 1 mg/kg, ip", "format": "functional, organism-based", "parameters": "dose 1 mg/kg"}}}
{"smiles": "COc1cc(N)c(Cl)cc1C(=O)NC[C@@H]1CCN2CCC[C@@H]12", "values": [{"measurement": "Activity", "setting": "Salmonella typhi", "result": "Active"}, {"measurement": "ED50", "setting": "Canis familiaris", "result": 0.01, "unit": "mg/kg"}, {"measurement": "inhibition", "setting": "[1]", "result": 7, "unit": "%"}]}
